Experimental data as given in ChEMBL document CHEMBL4840349, “Macrocyclic Diterpenoid Constituents of Euphorbia deflexa, an Endemic Spurge from Greece” (J Nat Prod, 2021).
The source made the active and inactive calls. No cut-off for these calls is given here.

Assays:
[1] = tested on: HeLa; test: Cytotoxicity against human HeLa cells assessed as cell growth inhibition incubated for 68 hrs by MTT assay; format: functional, cell-based
[2] = tested on: SK-MEL-28; test: Cytotoxicity against human SK-MEL-28 cells assessed as cell growth inhibition incubated for 68 hrs by MTT assay; format: functional, cell-based; settings: SK-MEL-28, 68 h
[3] = tested on: PC-3; test: Cytotoxicity against human PC-3 cells assessed as cell growth inhibition incubated for 68 hrs by MTT assay; format: functional, cell-based; settings: PC-3, 68 h
[4] = tested on: HepG2; test: Cytotoxicity against human HepG2 cells assessed as cell growth inhibition incubated for 68 hrs by MTT assay; format: functional, cell-based; settings: HepG2, 68 h
[5] = tested on: Streptococcus pyogenes; test: Antibacterial activity against Streptococcus pyogenes DSM 20565-0316-001 incubated for 20 hrs by MTT based double dilution method; format: functional, organism-based
[6] = tested on: Staphylococcus aureus; test: Antibacterial activity against Staphylococcus aureus DSM 20231 incubated for 20 hrs by MTT based double dilution method; format: functional, organism-based

SMILES | IC50 [1] [µM] | IC50 [2] [µM] | IC50 [3] [µM] | IC50 [4] [µM] | Activity [5] | Activity [6]
CC(=O)OC[C@@]12Cc3c(ccc(C)c3O)[C@]1(C)[C@@H](OC(C)=O)[C@@]1(O)C[C@@](C)(OC(C)=O)[C@H](OC(=O)c3ccccc3)[C@@H]1[C@H]2OC(C)=O | > 10 | > 10 | – | – | – | –
C/C=C(/C)C(=O)O[C@H]1C(C)=C[C@]23C(=O)[C@@H](C=C(C)[C@@H](O)[C@]12O)[C@H]1[C@@H](C[C@H]3C)C1(C)C | > 10 | > 10 | > 10 | > 10 | – | –
C=C1C(=O)O[C@@H]2C3O[C@]3(C)CC/C=C(\C)CC[C@@H]12 (some centres not stated) | 2.1 | 4.9 | > 10 | 5.6 | – | –
C/C=C(/C)C(=O)OC[C@@]1(C)[C@H]2[C@@H]3C=C(C)[C@@H](O)[C@]4(O)[C@@H](OC(=O)/C(C)=C\C)C(C)=C[C@@]4(C3=O)[C@H](C)C[C@]21OC(C)=O | 9.8 | > 10 | – | – | inactive | inactive
CC(=O)OCC(=O)O[C@@H]1[C@H]2[C@@H](OC(=O)c3ccccc3)[C@@H](C)C[C@]2(O)[C@H](O)[C@]2(O)[C@H](OC(C)=O)[C@@]1(OC(C)=O)C[C@H]1C(=O)C(C)(C)C[C@@H]12 | > 10 | > 10 | > 10 | > 10 | – | –
CC(=O)OC[C@@]12Cc3c(ccc(C)c3O)[C@]1(C)[C@@H](OC(C)=O)[C@]1(O)[C@H]([C@@H](OC(=O)c3ccccc3)[C@@H](C)[C@H]1OC(C)=O)[C@H]2OC(C)=O | > 5.8 | > 10 | – | – | – | –
C=C1[C@H](O)[C@H]2[C@@H](OC(=O)c3ccccc3)[C@](C)(OC(C)=O)[C@@H](OC(=O)c3ccccc3)[C@]2(O)[C@@H](O)[C@@H](C)/C=C/C(C)(C)[C@H](O)[C@H](OC(C)=O)[C@H]1OC(C)=O | 9.9 | > 10 | > 10 | > 10 | inactive | inactive
C/C=C(/C)C(=O)O[C@@H]1C2[C@@H](OC(=O)c3ccccc3)[C@@H](C)C[C@]2(O)C(=O)[C@@](C)(O)[C@H]2CC(C)(C)C(=O)[C@]2(O)[C@H]2O[C@@]12COC(C)=O (some centres not stated) | > 10 | > 10 | > 10 | > 10 | inactive | inactive
